According to PMC6880826 (Beilstein Journal of Organic Chemistry, 2019):
pIC50: −log10 of the molar value. Where two headings read alike, the source gives them in different places.

What was measured:
[1] = Mouse pharmacokinetics, plasma and brain, oral dose; assay type: in vivo, CD1 mouse; conditions: p.o. 10 mg/kg
From the text: The route of administration and dose were selected to most closely match relevant published mouse disease model studies. […] Table S1: Study design summary S8 (1 picture or pasted object on this page, not shown here)

[2] = Metabolic stability in mouse liver microsomes (MLM); assay type: in vitro ADME
Notum(81-451 Cys330Ser) = biological target: T1, Notum(81-451 Cys330Ser) (Homo sapiens, UniProt Q6P988, C330S); assay: Notum OPTS fluorescence inhibition assay
T1 sequence (Q6P988 81-451 C330S): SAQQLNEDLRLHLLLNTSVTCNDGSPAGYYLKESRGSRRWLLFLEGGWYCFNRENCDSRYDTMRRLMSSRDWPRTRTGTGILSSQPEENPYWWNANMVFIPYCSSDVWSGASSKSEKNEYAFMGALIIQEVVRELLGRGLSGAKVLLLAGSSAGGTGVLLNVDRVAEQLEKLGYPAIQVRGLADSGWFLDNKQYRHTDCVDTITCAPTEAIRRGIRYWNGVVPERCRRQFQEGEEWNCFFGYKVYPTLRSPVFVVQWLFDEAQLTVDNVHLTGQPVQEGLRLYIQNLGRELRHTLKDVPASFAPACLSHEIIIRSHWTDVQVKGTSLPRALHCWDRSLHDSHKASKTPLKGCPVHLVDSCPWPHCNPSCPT

P-gp (MDR1) = assay: MDCK-MDR1 monolayer permeability / P-gp efflux; assay type: in vitro ADME; conditions: dog; for Papp: MDCK-MDR1, Table S4; for MDCK-MDR1 AB Papp: Table S4; for efflux ratio: MDCK-MDR1, csv file, read-out: MDCK-mdr1 ER
MDCK-MDR1 monolayer = MDCK-MDR1 monolayer permeability / P-gp efflux; assay type: in vitro ADME; conditions: for efflux ratio: Table S4; for MDCK-mdr1 ER / MDCK-mdr1 AB / MDCK-mdr1 BA: csv file; for MDCK-mdr1 AB: AB direction; for MDCK-mdr1 BA: BA direction
[3] = Table S4, mouse liver microsomes
[4] = AB direction, read-out: MDCK-MDR1 AB Papp
[5] = BA direction, read-out: MDCK-MDR1 BA Papp

| Structure (SMILES) | MLM Cli [2, 3] | pIC50 (Notum(81-451 Cys330Ser)) | Papp (P-gp (MDR1); [4]) | Papp (P-gp (MDR1); [5]) | efflux ratio (MDCK-MDR1 monolayer) | MDCK-mdr1 AB (MDCK-MDR1 monolayer) | MDCK-mdr1 BA (MDCK-MDR1 monolayer) | MLM Cli ([2]; csv file) | other results |
| --- | --- | --- | --- | --- | --- | --- | --- | --- | --- |
| O=C(O)CSc1ncnc2c(C3CC3)c(Cl)sc12 [Compound 1] | 1e+06 µL/min/mg |  |  |  |  |  |  |  | Cmax ([1]; CD1, po, brain): 500 ng/g; Tmax ([1]; CD1, po, brain): 2 h; half-life ([1]; CD1, po, brain): 7.1 h; AUC(0-inf) ([1]; CD1, po, plasma): 354 µg·h/mL; AUC(0-t) ([1]; CD1, po, plasma): 303 µg·h/mL; Cmax ([1]; CD1, po, plasma): 35400 ng/mL; Tmax ([1]; CD1, po, plasma): 2 h; half-life ([1]; CD1, po, plasma): 8.8 h; AUC0→t ([1]; brain): 3,700 h·ng/g; AUC0→∞ ([1]; brain): 4,080 h·ng/g; Cli in mouse liver microsomes (MLM) [2]: 1.0 μL/min/mg protein |
| CN(C)C(=O)CSc1ncnc2c(C3CC3)c(Cl)sc12 [Compound 17a] |  | 8.12 |  |  |  |  |  |  |  |
| O=C(CSc1ncnc2c(C3CC3)c(Cl)sc12)N1CCCCC1 [Compound 17b] |  | 7.04 |  |  |  |  |  |  |  |
| O=C(CSc1ncnc2c(C3CC3)c(Cl)sc12)N1CCOCC1 [Compound 17c] | > 500 µL/min/mg | 7.74 | 40 ×10⁻⁶ cm/s | 38 ×10⁻⁶ cm/s | 0.95 | 40 x10–6 cm/s | 38 x10–6 cm/s | > 500 µL/min/mg | MDCK-mdr1 ER (MDCK-MDR1 monolayer): 0.95 |
| O=C(CSc1ncnc2c(C3CC3)c(Cl)sc12)N1CCS(=O)(=O)CC1 [Compound 17d] |  | 7.32 |  |  |  |  |  |  |  |
| O=C(CSc1ncnc2c(C3CC3)c(Cl)sc12)N1CC2COCC2C1 (stereo not shown) [Compound 17e] | > 500 µL/min/mg | 8.00 |  |  |  |  |  | > 500 µL/min/mg |  |
| O=C(CSc1ncnc2c(C3CC3)c(Cl)sc12)N1CC2(COC2)C1 [Compound 17f] | 100 µL/min/mg | 8.00 |  |  |  |  |  | 100 µL/min/mg |  |
| O=C1CN(C(=O)CSc2ncnc3c(C4CC4)c(Cl)sc23)CN1 [Compound 17g] | 19 µL/min/mg | 8.82 |  | 14 ×10⁻⁶ cm/s | 3.7 | 3.8 x10–6 cm/s | 14 x10–6 cm/s | 19 µL/min/mg | MDCK-MDR1 AB Papp (P-gp (MDR1); AB direction): 3.8 ×10⁻⁶ cm/s; MDCK-mdr1 ER (MDCK-MDR1 monolayer): 3.7 |
| CN1CN(C(=O)CSc2ncnc3c(C4CC4)c(Cl)sc23)CC1=O [Compound 17h] | 45 µL/min/mg | 8.82 | 6 ×10⁻⁶ cm/s | 13 ×10⁻⁶ cm/s | 2.2 | 6 x10–6 cm/s | 13 x10–6 cm/s | 45 µL/min/mg | efflux ratio (P-gp (MDR1)): 2.2 |
| O=C1CN(C(=O)CSc2ncnc3c(C4CC4)c(Cl)sc23)CCN1 [Compound 17i] | 24 µL/min/mg | 8.15 | 7.9 ×10⁻⁶ cm/s | 65 ×10⁻⁶ cm/s | 8.2 | 7.9 x10–6 cm/s | 65 x10–6 cm/s | 24 µL/min/mg | MDCK-mdr1 ER (MDCK-MDR1 monolayer): 8.2 |
| O=C1CN(C(=O)CSc2ncnc3c(C4CC4)c(Cl)sc23)CCCN1 [Compound 17j] |  | 7.44 |  |  |  |  |  |  |  |
| O=C1CCN(C(=O)CSc2ncnc3c(C4CC4)c(Cl)sc23)CCN1 [Compound 17k] |  | 7.31 |  |  |  |  |  |  |  |
| O=C(CSc1ncnc2c(C3CC3)c(Cl)sc12)N1CCc2ncccc2C1 [Compound 17l] |  | 8.34 |  |  |  |  |  |  |  |
| O=C(CSc1ncnc2c(C3CC3)c(Cl)sc12)N1CCn2ccnc2C1 [Compound 17m] | 290 µL/min/mg | 8.57 | 21 ×10⁻⁶ cm/s | 25 ×10⁻⁶ cm/s | 1.2 | 21 x10–6 cm/s | 25 x10–6 cm/s | 290 µL/min/mg | efflux ratio (P-gp (MDR1)): 1.2 |
| O=C(CSc1ncnc2c(C3CC3)c(Cl)sc12)N1CCn2cncc2C1 [Compound 17n] | 49 µL/min/mg | 8.60 | 9 ×10⁻⁶ cm/s | 31 ×10⁻⁶ cm/s | 3.4 | 9 x10–6 cm/s | 31 x10–6 cm/s | 49 µL/min/mg | efflux ratio (P-gp (MDR1)): 3.4 |
| O=C(CSc1ncnc2c(C3CC3)c(Cl)sc12)N1CCc2[nH]cnc2C1 [Compound 17o] |  | 8.64 |  |  |  |  |  |  |  |
| O=C(CSc1ncnc2c(C3CC3)c(Cl)sc12)N1CCn2cnnc2C1 [Compound 17p] | 29 µL/min/mg | 8.92 |  | 93 ×10⁻⁶ cm/s | 98 | 0.95 x10–6 cm/s | 93 x10–6 cm/s | 29 µL/min/mg | MDCK-MDR1 AB Papp (P-gp (MDR1); AB direction): 0.95 ×10⁻⁶ cm/s; MDCK-mdr1 ER (MDCK-MDR1 monolayer): 98 |
| O=C(CSc1ncnc2c(C3CC3)c(Cl)sc12)N1CCn2c(nnc2C(F)(F)F)C1 [Compound 17q] | 190 µL/min/mg | 8.10 | 12 ×10⁻⁶ cm/s | 34 ×10⁻⁶ cm/s | 2.8 | 12 x10–6 cm/s | 34 x10–6 cm/s | 190 µL/min/mg | efflux ratio (P-gp (MDR1)): 2.8 |
| O=C(CSc1ncnc2c(C3CC3)c(Cl)sc12)N1CCn2nncc2C1 [Compound 17r] | 110 µL/min/mg | 8.62 | 26 ×10⁻⁶ cm/s | 28 ×10⁻⁶ cm/s | 1.1 | 26 x10–6 cm/s | 28 x10–6 cm/s | 110 µL/min/mg | efflux ratio (P-gp (MDR1)): 1.1 |
